Measurements: PubChem BioAssay (NCI)
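These data come from cells grown in 96-well plates and exposed to compound for 48 hours at five concentrations. GI50: concentration for 50% inhibition of growth. TGI: total growth inhibition.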

Legend:
Experiment in all cases: DTP human tumour cell line panel, 48 h
[1] = system: A498 renal
[2] = system: COLO 205 colon
[3] = system: DMS 114 small cell lung
[4] = system: KM20L2 colon
[5] = system: SK-MEL-5 melanoma
[6] = system: SN12C renal
[7] = system: TK-10 renal
[8] = system: BT-549 breast
[9] = system: NCI/ADR-RES ovarian
[10] = system: SNB-78 CNS

C=CCN(N=O)C(=O)NCCCCC(NC(C)=O)C(=O)NCc1ccccc1 (configuration not stated)
TGI [1]: > 100 µM
TGI [2]: > 100 µM
TGI [3]: > 100 µM
TGI [4]: > 100 µM
TGI [5]: > 100 µM
TGI [6]: > 100 µM
TGI [7]: > 100 µM

Cc1ccc(S(=O)(=O)N2CCc3ccc(O)c4c3C2Cc2ccc3c(c2-4)OCO3)cc1 (configuration not stated)
GI50 [1]: 0.898 µM
TGI [1]: 7.09 µM
GI50 [8]: 0.822 µM
TGI [8]: 12.5 µM
GI50 [2]: 5.08 µM
TGI [2]: 18.7 µM
GI50 [9]: 0.348 µM
TGI [9]: 2.08 µM
GI50 [5]: 0.486 µM
TGI [5]: 2.18 µM
GI50 [6]: 2.32 µM
TGI [6]: > 40 µM
GI50 [7]: 3.48 µM
TGI [7]: 29.2 µM

COc1ccc(CCc2cc(OC)c(O)c(OC)c2)cc1
TGI [2]: > 100 µM
TGI [3]: > 100 µM
TGI [4]: > 100 µM
TGI [5]: > 100 µM
TGI [6]: > 100 µM
TGI [10]: > 100 µM

O=c1c(Cl)cc2nc3ccccc3sc-2c1Cl
TGI [1]: 80.7 µM
TGI [8]: 24.6 µM
TGI [2]: 38 µM
TGI [9]: 56.9 µM
TGI [5]: 13.9 µM
TGI [6]: 31.9 µM
TGI [7]: 33.1 µM

COc1ccc(OC)c(/C=C/c2nc(SCc3ccccc3)n(-c3ccc(Cl)cc3)n2)c1
GI50 [1]: 4.54 µM
TGI [1]: 88.4 µM
GI50 [8]: 11.6 µM
TGI [8]: 38.5 µM
GI50 [2]: 14.6 µM
TGI [2]: > 100 µM
GI50 [9]: 2.25 µM
TGI [9]: > 100 µM
GI50 [5]: 4.75 µM
TGI [5]: 21.9 µM
GI50 [6]: 8.1 µM
TGI [6]: > 100 µM
GI50 [7]: 30.6 µM
TGI [7]: > 100 µM

c1ccc2c(NCCCCCCNc3cccc4ccccc34)cccc2c1
TGI [1]: > 100 µM
TGI [2]: > 100 µM
TGI [3]: > 100 µM
TGI [4]: > 100 µM
TGI [5]: > 100 µM
TGI [6]: > 100 µM
TGI [10]: > 100 µM
TGI [7]: > 100 µM

C/C(=N/N=C(N)N)c1ccc(NC(=O)Nc2ccc(/C(C)=N/N=C(N)N)cc2)cc1
GI50 [1]: 23.5 µM
TGI [1]: 69.9 µM
GI50 [8]: 14.8 µM
TGI [8]: 38.7 µM
GI50 [2]: 43.3 µM
TGI [2]: > 100 µM
GI50 [9]: 18 µM
TGI [9]: > 100 µM
GI50 [5]: 10.6 µM
TGI [5]: 37.9 µM
GI50 [6]: 14.2 µM
TGI [6]: 45.7 µM
GI50 [7]: 6.2 µM
TGI [7]: 33.8 µM

Nc1ccc(Sc2c3ccccc3nc3ccccc23)cc1
TGI [1]: > 100 µM
TGI [8]: 27.4 µM
TGI [2]: 37.6 µM
TGI [3]: 38 µM
TGI [4]: 33.1 µM
TGI [9]: 36 µM
TGI [5]: 30.6 µM
TGI [6]: 36.1 µM
TGI [10]: 53.3 µM
TGI [7]: 34.2 µM

CCOC1CC2OC(=O)C1C=C2C(=O)OC (configuration not stated)
TGI [1]: > 100 µM
TGI [2]: 37.2 µM
TGI [3]: 54.9 µM
TGI [4]: > 100 µM
TGI [5]: > 100 µM
TGI [10]: > 100 µM
TGI [7]: 84.1 µM

CC(=O)O[C@H]1CC2C=CC3C(CCC31)O2 (some centres not stated)
TGI [2]: > 100 µM
TGI [3]: > 100 µM
TGI [4]: > 100 µM
TGI [6]: > 100 µM
TGI [10]: > 100 µM
TGI [7]: > 100 µM

CC(C)C1N2CCCCC2[C@@H]2c3[nH]c4ccccc4c3CCN12 (some centres not stated)
TGI [1]: > 100 µM
TGI [2]: > 100 µM
TGI [3]: > 100 µM
TGI [4]: > 100 µM
TGI [5]: > 100 µM
TGI [6]: > 100 µM
TGI [10]: > 100 µM

Cn1cnc([N+](=O)[O-])c1Sc1nccc(=O)[nH]1
TGI [1]: > 100 µM
TGI [2]: > 100 µM
TGI [3]: > 100 µM
TGI [5]: > 100 µM
TGI [6]: > 100 µM
TGI [10]: > 100 µM
TGI [7]: > 100 µM

C/C(=N/Nc1nc(C)cc(=O)[nH]1)C(=O)O
TGI [1]: > 100 µM
TGI [8]: > 100 µM
TGI [2]: > 100 µM
TGI [9]: > 100 µM
TGI [5]: > 100 µM
TGI [6]: > 100 µM
TGI [7]: > 100 µM

FC(F)(F)c1cc(Nc2ccc3cc(OCCCN4CCOCC4)ccc3n2)ccc1Cl
GI50 [1]: 1.47 µM
TGI [1]: 6.27 µM
GI50 [8]: 1.74 µM
TGI [8]: 4.07 µM
GI50 [2]: 1.74 µM
TGI [2]: 3.49 µM
GI50 [9]: 2.69 µM
TGI [9]: 18 µM
GI50 [5]: 1.64 µM
TGI [5]: 3.16 µM
GI50 [6]: 2.96 µM
TGI [6]: 12.9 µM
GI50 [7]: 2.64 µM
TGI [7]: 5.86 µM

COC1=CC(=O)c2nc(Cl)ccc2C1=O
GI50 [1]: 12 µM
TGI [1]: 24.3 µM
GI50 [8]: 2.54 µM
TGI [8]: 6.42 µM
GI50 [2]: 2.31 µM
TGI [2]: 4.98 µM
GI50 [9]: 1.98 µM
TGI [9]: 4.24 µM
GI50 [5]: 1.66 µM
TGI [5]: 3.02 µM
GI50 [6]: 1.72 µM
TGI [6]: 3.19 µM
GI50 [7]: 2.09 µM
TGI [7]: 4.23 µM

Cc1ccc2nc(NC(=O)/C(=N\NC(=S)NN)C3C(=O)NC(=S)NC3=O)sc2c1
TGI [1]: > 100 µM
TGI [2]: > 100 µM
TGI [4]: > 100 µM
TGI [5]: > 100 µM
TGI [6]: > 100 µM
TGI [10]: > 100 µM
TGI [7]: > 100 µM

CCOC(=O)C(C(O)c1ccc([N+](=O)[O-])cc1)P(=O)(OCC)OCC (configuration not stated)
TGI [1]: > 100 µM
TGI [4]: > 100 µM
TGI [5]: > 100 µM
TGI [6]: > 100 µM
TGI [7]: > 100 µM

CC1(C)N=C(N)N=C(N)N1c1cccc(Br)c1
GI50 [1]: 15.9 µM
TGI [1]: > 100 µM
GI50 [8]: 8.04 µM
TGI [8]: > 100 µM
GI50 [2]: 8.39 µM
TGI [2]: > 100 µM
GI50 [9]: > 63.5 µM
TGI [9]: > 100 µM
GI50 [5]: 1.03 µM
TGI [5]: > 100 µM
GI50 [6]: 4.09 µM
TGI [6]: > 100 µM
TGI [7]: > 100 µM

COc1ccc2nc(NC(=O)C(=O)NNC(=O)c3ccncc3)sc2c1
TGI [1]: > 100 µM
TGI [2]: > 100 µM
TGI [3]: > 100 µM
TGI [4]: > 100 µM
TGI [5]: > 100 µM
TGI [6]: > 100 µM
TGI [10]: > 100 µM
TGI [7]: > 100 µM

Cc1cc(Cl)ccc1NC(=O)C(=O)C(C(=O)c1ccccc1)C1OC(=O)c2ccccc21 (configuration not stated)
TGI [1]: > 100 µM
TGI [2]: > 100 µM
TGI [3]: > 100 µM
TGI [4]: > 100 µM
TGI [5]: > 100 µM
TGI [6]: > 100 µM
TGI [10]: > 100 µM
TGI [7]: > 100 µM

Nc1ncnc2c1ccn2[C@@H]1O[C@H]([C@H](O)c2ccc(Cl)c(F)c2)[C@@H](O)[C@H]1O
GI50 [1]: 52.4 µM
TGI [1]: > 100 µM
GI50 [8]: > 100 µM
TGI [8]: > 100 µM
GI50 [2]: > 100 µM
TGI [2]: > 100 µM
GI50 [9]: > 100 µM
TGI [9]: > 100 µM
GI50 [5]: 92.6 µM
TGI [5]: > 100 µM
GI50 [6]: > 100 µM
TGI [6]: > 100 µM
GI50 [7]: > 100 µM
TGI [7]: > 100 µM
